Results on six compounds are retold here after patent US20250144069A1, “BILOBALIDE DERIVATIVE COMPOUNDS FOR TREATING NEUROLOGICAL DISEASES AND CANCERS” (The Chinese University of Hong Kong, priority 2023, published 2025).

Like-named read-outs stand apart in the source and are kept apart here.

Holding throughout (format): cell-based, human
One experiment relates to Jurkat cells. Description: Single-dose CCK-8 cell viability screening (suspension cells). To be noted: Homo sapiens, Jurkat, 48 h.
Experiment [1] in a line: Single-dose CCK-8 cell viability screening (adherent cells). To be noted: Homo sapiens, average of A549 and Jurkat % viability, 50 uM, 48 h.
A further experiment concerns A549 cells. The description is as above. To be noted: Homo sapiens, A549, 48 h.
The mark [2] stands for this setting: read-out: % Viability (50 uM, 48 h) Jurkat.
[3] abbreviates: read-out: % Viability (50 uM, 48 h) A549.
[4] abbreviates: Jurkat cells, 50 uM, CCK-8, read-out: % Viability (50 uM, 48 h) Jurkat.
The mark [5] stands for this setting: A549 cells, 50 uM, 48 h, CCK-8, read-out: % Viability (50 uM, 48 h) A549.

What is called viability is a read-out of living cells in per cent, often relative to untreated cells. In the case of `CC(C)(C)[C@]1(O)C[C@@H]2OC(=O)C[C@@]23C(=O)O[C@@H]2N(C45CC(C4)C5)C(=O)[C@H](OC(=O)c4ccccc4)[C@]213` [DW172, (3aS,5aS,8R,8aS,9R,10aS)-6-(bicyclo[1.1.1]pentan-1-yl)-9-(tert-butyl)-9-hydroxy-2,4,7-trioxooctahydro-4H,9H-furo [3″,2″:2′,3′]cyclopenta [1′,2′:3,4]furo[2,3-b]pyrrol-8-yl benzoate], the viability at 50 µM in the experiment with Jurkat cells (setting [2]) stood at 94.4%; in experiment [1], 96.6%; in the experiment with A549 cells (setting [3]) it was 98.7%.

As to `CC(C)(C)[C@]1(O)C[C@@H]2OC(=O)C[C@@]23C(=O)O[C@@H]2N(CC4CCN(C(=O)c5ccc6c(c5)OCCO6)CC4)C(=O)[C@H](OC(=O)c4ccccc4)[C@]213` [XBB-045, (3aS,5aS,8R,8aS,9R,10aS)-9-(tert-butyl)-6-((1-(2,3-dihydrobenzo[b][1,4]dioxine-6-carbonyl)piperidin-4-yl)methyl)-9-hydroxy-2,4,7-trioxooctahydro-4H,9H-furo [3″,2″:2′,3′]cyclopenta [1′,2′:3,4]furo[2,3-b]pyrrol-8-yl benzoate], the viability at 50 µM with Jurkat cells (setting [4]) was determined as 84.8%; in experiment [1] (A549, 48 h), 85.9%; with A549 cells (setting [5]), 87%.

With `CC(C)(C)[C@]1(O)C[C@@H]2OC(=O)C[C@@]23C(=O)O[C@@H]2N(CC4COC4)C(=O)[C@H](OC(=O)c4ccccc4)[C@]213` [DW191, (3aS,5aS,8R,8aS,9R,10aS)-9-(tert-butyl)-6-(1-oxetan-3-ylmethyl)-9-hydroxy-2,4,7-trioxooctahydro-4H,9H-furo [3″,2″:2′,3′]cyclopenta [1′,2′:3,4]furo [2,3-b]pyrrol-8-yl benzoate], the viability at 50 µM in the experiment on Jurkat cells (setting [4]) was 105%; in experiment [1] (A549, 48 h), 103%; in the experiment with A549 cells (setting [5]), 101%.

Turning to `CC(=O)O[C@H]1C(=O)N[C@H]2OC(=O)[C@]34CC(=O)O[C@H]3C=C(C(C)(C)C)[C@@]214` [XBB-010, (3aS,5aS,8R,8aS,10aS)-9-(tert-butyl)-2,4,7-trioxo-2,3,5a,6,7,8-hexahydro-4H,10aH-furo[3″,2″:2′,3′]cyclopenta[1′,2′:3,4]furo[2,3-b]pyrrol-8-yl acetate], the viability at 50 µM with Jurkat cells (read-out: % Viability (50 uM, 48 h) Jurkat, Jurkat cells, 50 uM, 48 h, CCK-8) was determined as 115%; in experiment [1] (A549, 48 h) it was 114%; in the experiment on A549 cells (read-out: % Viability (50 uM, 48 h) A549, A549 cells, 50 uM, 48 h, CCK-8), 112%.

Consider `COc1ccc(CN2C(=O)[C@H](OC(=O)c3ccccc3)[C@@]34[C@@H]2OC(=O)[C@@]32CC(=O)O[C@H]2C[C@@]4(O)C(C)(C)C)c(OC)c1` [XBB-018, (3aS,5aS,8R,8aS,9R,10aS)-6-(2,4-dimethoxy-benzyl-9-(tert-butyl)-9-hydroxy-2,4,7-trioxooctahydro-4H,9H-furo [3″,2″:2′,3′]cyclopenta [1′,2′:3,4]furo [2,3-b]pyrrol-8-yl benzoate], for which the viability at 50 µM in the experiment on Jurkat cells (setting [4]) stood at 102%; in experiment [1] (A549, 48 h), 94.5%; in the experiment with A549 cells (setting [5]), 86.5%.

For `CC(C)(C)[C@]1(O)C[C@@H]2OC(=O)C[C@@]23C(=O)O[C@@H]2N(c4ccccc4)C(=O)[C@H](O)[C@]213` [JW116, (3aS,5aS,8R,8aS,9R,10aS)-9-(tert-butyl)-8,9-dihydroxy-6-phenyltetrahydro-4H,9H-furo[3″,2″:2′,3′]cyclopenta[1′,2′:3,4]furo[2,3-b]pyrrole-2,4,7(3H,8H)-trione], the viability at 50 µM with Jurkat cells (setting [2]) was determined as 105%; in experiment [1] (A549, 48 h), 91.2%; in the experiment with A549 cells (setting [3]) it was 77.7%.
